Test results from patent US5648373A, “CoA-IT and PAF inhibitors” (SmithKline Beecham Corporation, priority 1992, dated 1997).
“Also recorded” adds a separate entry of the source.

Experiments:
[1] = system: TPA-induced inflammation in the mouse ear; assay: TPA-induced inflammation of the mouse ear (assay d): ear thickness, myeloperoxidase; format: in vivo; conditions: topical TPA
Experimental: The ability of compounds that inhibit CoA-IT to affect in vivo inflammatory responses was assessed. Inflammatory responses were induced in the mouse ear by the topical application of a pro-inflammatory agent, such as 12-0-tetradecanoylphorbol 13-acetate. This produced an edematous response, as measured by increases in ear thickness, as well as increased inflammatory cellular infiltrate, as measured by increases in myeloperoxidase activity as described in the methods.
Male Balb/c inbred mice were obtained from Charle River Breeding Laboratories (Kingston, N.Y.). Within a single experiment mice (22-25 g) were age-matched. These in vivo experiments typically involved use of 5-6 animals/group.
TPA (12-0-tetradecanoylphorbol 13-acetate) (Sigma Chemical Company) in acetone (4 μg/20 μl) was applied to the inner and outer surfaces of the left ear of BALB/c male mice. The thickness of both ears was then measured with a dial micrometer (Mitutoyo, Japan) at both 2 and 4 hours after treatment, and the data expressed as the change in thickness (10-^3 cm) between treated and untreated ears. […] After measuring the edema, the inflammed left ears were removed and stored at -70° C. until they were assayed for MPO (myeloperoxidase) activity where appropriate. […]

intact human neutrophils = assay: Movement of [3H]arachidonate into 1-ether-linked phospholipids in intact non-stimulated neutrophils (method e); format: cell-based; conditions: various concentrations, 2 hours, no cellular stimulation
Experimental: CoA-IT activity can also be measured in intact cells by following the movement of a pulse of [^3 H]arachidonate as it moves into the "pool 2" phospholipids (1-alkyl and 1-alkenyl phospholipids) in inflammatory cells. These specific studies were performed in intact human neutrophils, which contain CoA-IT activity and transfer arachidonate into 1-alkyl and 1-alkenyl phospholipids. To determine the effects of Compound 3 on this transfer of arachidonate, neutrophils were exposed briefly to [^3 H]arachidonic acid to allow incorporation of the label into 1-acyl phospholipids, treated with various concentrations of Compound 3 and the movement of [^3 H]arachidonate between phospholipid subclasses assessed over the subsequent 2 hours in the absence of cellular stimulation.
Measurement of the effect of CoA-IT inhibitors on the transfer of [^3 H]arachidonate into 1-ether phospholipids in non-stimulated inflammatory cells can be accomplished by general application of the following specific method. Human neutrophils were isolated and resuspended (5×10^7 /ml) in Hanks Balanced Salt Solution (HBSS; Gibco). […] The phospholipid subclasses were separated by TLC in benzene/hexane/ethyl ether (50:45:4, v/v), located by image analysis (Bioscan) and the amount of radioactivity in each class was determined by zonal scraping and liquid scintillation counting.

[2] = system: mouse bone marrow-derived mast cells; assay: Arachidonate content of cellular phospholipids of mast cells (method e); format: cell-based
Experimental: As treatment of intact cells blocks the movement of arachidonate into specific cellular phospholipids, it followed that prolonged treatment of inflammatory cells with CoA-IT inhibitors could deplete their large endogenous pools of arachidonate within phospholipids. To determine that CoA-IT inhibition can alter the amount of arachidonate within cellular phospholipids, mouse bone marrow-derived mast cells were treated with Compound 3 for 24 hours and the mass of arachidonate within total cellular phospholipids was determined. Compound 3 induced a concentration-dependentreduction in the total cellular arachidonate within mast cells, with greater than 75% reduction apparent at 20 μM. […]
The following is the method for assessing the ability of a compound to alter arachidonate content of cellular phospholipids, which can be generalized for any desired cell. […] The radioactive and mole quantities of arachidonate in complex lipids are determined. At this point, cellular lipid extracts are treated with KOH (0.5M) to remove fatty acids from complex lipids (phospholipids) and the quantities of arachidonate in these extracts can then be determined by various methods, including gas chromatography and mass spectrometry (Chilton [Methods Enzymol. (1990) 187, 157-166]).

human neutrophils [3] = assay: Assay for production of platelet-activating factor (assay c), A23187-challenged neutrophils; format: cell-based
Experimental: Blood was obtained from normal humans and neutrophils were isolated as described for the arachidonic acid release assay, above. The final leukocyte preparation was of greater than 95% purity and viability.
Neutrophils were suspended in PBS at concentrations of 5 to 20×10^6 cells per ml. Cells were added to test tubes and treated with the desired compounds for 5 to 10 minutes, then challenged with calcium ionophore A23187, 2 μM and 20-30 μCi of [^3 H]acetic acid (NEN-Dupont, Boston, Mass.), or the vehicle of PBS with 0.25-1 mg/ml […]. After 5 to 20 minutes, the reactions were terminated by addition of an equal volume of chloroform:methanol (1:2, v/v) to the samples and the lipids were extracted by addition of equal volumes of chloroform and distilled water. The samples were vortexed and centrifuged at high speed and the chloroform layer removed to a clean tube.
The chloroform from each tube was evaporated to dryness and the material suspended in a small volume of chloroform or chloroform:methanol (25-100 μl) and the total material spotted on a Silica TLC plate. The plates were developed in chloroform/methanol/acetic acid/water (50:25:8:4, v/v) visualized by radioscanning (Bioscan) and the product, [^3 H]PAF, was scraped and quantified by liquid scintillation spectroscopy. With this TLC system, the Rf value for a synthetic standard of PAF was approximately 0.33.

human neutrophils [4] = assay: Arachidonic acid release assay (assay b), A23187-challenged neutrophils; format: cell-based
Experimental: Human neutrophils were obtained in the laboratory using three different methods. One method used leukophoresis packs from normal humans and neutrophils were isolated using the histopaque-1077 technique. The blood was centrifuged at 300× g for 10 minutes. The cell pellets were resuspended in PBS composed of 137 mM NaCI, 8.8 mM Na2HPO4, 1.5 mM KH2PO4, 2.7 mM KCI (Dulbecco's Gibco Laboratories, Long Island, N.Y.) and layered over histopaque-1077 (Sigma, St. Louis, Mo.). The pellets were collected after centrifugation (300× g for 30 minutes) and washed once in PBS. The cell pellets were exposed briefly to dionized water to Iyse any erythrocytes. The remaining cells were collected by centrifugation, suspended in PBS, counted and identified after cytospinning and staining. The final leukocyte preparation was of greater than 95% purity and viability.
The second method isolated human neutrophils from fresh heparinized normal blood using the Histopaque-1077 technique. […] The remaining cells were collected by centrifugation, suspended in PBS, counted and identified after cytospinning and staining. […]
The third method isolated human neutrophils from freshly drawn heparinized normal blood using the Percoll technique. […] The neutrophils were suspended in PBS, counted and identified after cytospinning and staining. […]

Q: For CCOP(=O)(CCCCCCCn1c(-c2ccccc2)c(-c2ccccc2)n(-c2ccccc2)c1=O)OCC [Compound 3, Diethyl 7-(3-4-5-triphenyl-2-oxo-2-3-dihydroimidazol-1-yl)heptane phosphonate], which “anti-inflammatory effect in vivo (TPA-induced mouse ear inflammation)” value ([1]; listed as Example 3) is on record?
A: positive inhibition; also recorded: anti-inflammatory responses

Q: And the “anti-inflammatory effect in vivo (TPA-induced mouse ear inflammation)” value ([1]; listed as compound 3)?
A: anti-inflammatory effect

Q: What about the “movement of [3H]arachidonate into 1-ether-linked phospholipids, 1-alkyl PC and 1-alkenyl PE” value (intact human neutrophils) of the same compound?
A: concentration-dependent blockade; also recorded: completely block

Q: What about the “movement of [3H]arachidonate into 1-ether-linked phospholipids, 1-alkyl PC and 1-alkenyl PE” value (intact human neutrophils; listed as Example 3) of the same compound?
A: concentration-dependent blockade

Q: And the “loss of arachidonate from all major phospholipid classes of the mast cell” value ([2]; 24 hours, various concentrations)?
A: concentration-dependent loss

Q: What about the “loss in the mass of 18:0, 18:1, 18:2 from PI, PE and PC” value ([2]; mast cells) of the same compound?
A: no loss

Q: And the “inhibition of PAF production” value (human neutrophils [3])?
A: completely and in a concentration dependent fashion; also recorded: inhibition

Q: What about the “inhibition of free arachidonic acid release” value (human neutrophils [4]) of the same compound?
A: completely and in a concentration dependent fashion; also recorded: inhibition
